Here are results for 27 molecules from US9944639B2, “Quinolizinone derivatives as PI3K inhibitors” (Lupin Limited, priority 2014, dated 2018).

As usually defined, the IC50 is the concentration that gives 50% inhibition.

The target of this assay is T1, PI3Kδ (Homo sapiens, UniProt O00329).
T1 construct: endogenous in cells; host or cells: Raji cells
Nature of the assay: Cell Based Assay for PI3Kδ (AKT phosphorylation, AlphaScreen SureFire, anti-IgM stimulated Raji cells). The following applies: compounds 1 h, anti-IgM (3 μg/mL) 30 min, phosphorylation of AKT, read-out: PI3Kδ inhibition IC50. As to the method:
[formula] C) Cell Based Assay for PI3Kδ
Raji cells were maintained in RPMI-1640 (Sigma) supplemented with 10% fetal bovine serum (heat inactivated) (FBS, Sigma), 100 U penicillin/mL, and […] streptomycin and incubated at 37° C. and 5% CO2. Cells were centrifuged and resuspended in a complete medium. The required numbers of cells were transferred to a tissue culture flask containing medium without serum for 1 h at 37° C., 5% CO2. Following 1 h serum starvation, cells were centrifuged and resuspended in Hank's Balanced Salt Solution (HBSS, Sigma) and seeded in at a density of 1 million cells/well in 96-well clear bottom plates. The cells were treated with test compounds for 1 h at 37° C., 5% CO2. Cells were then stimulated with anti-IgM (3 μg/mL) for 30 min. After Stimulation, cells were lysed with 15 μL of 5× lysis buffer and the plate was shaken on an orbital plate shaker at approximately 300 rpm for 10 min. AlphaScreen® SureFire® Cell-based Assay (Perkin-Elmer, Waltham, Mass., USA) was performed to measure phosphorylation of AKT, in the cells according to the manufacturer's instructions. The luminescence was measured using an alpha technology-compatible plate reader BMG Labtech, Germany) at 520-620 nm. Percentage inhibition was calculated according to formula: […]
IC50 values were calculated by plotting % inhibition against the respective concentrations of test compounds using GraphPad Prism 5.
(In general: Alpha assays give light when donor and acceptor beads are brought close together.)

T1 sequence (O00329 whole entry): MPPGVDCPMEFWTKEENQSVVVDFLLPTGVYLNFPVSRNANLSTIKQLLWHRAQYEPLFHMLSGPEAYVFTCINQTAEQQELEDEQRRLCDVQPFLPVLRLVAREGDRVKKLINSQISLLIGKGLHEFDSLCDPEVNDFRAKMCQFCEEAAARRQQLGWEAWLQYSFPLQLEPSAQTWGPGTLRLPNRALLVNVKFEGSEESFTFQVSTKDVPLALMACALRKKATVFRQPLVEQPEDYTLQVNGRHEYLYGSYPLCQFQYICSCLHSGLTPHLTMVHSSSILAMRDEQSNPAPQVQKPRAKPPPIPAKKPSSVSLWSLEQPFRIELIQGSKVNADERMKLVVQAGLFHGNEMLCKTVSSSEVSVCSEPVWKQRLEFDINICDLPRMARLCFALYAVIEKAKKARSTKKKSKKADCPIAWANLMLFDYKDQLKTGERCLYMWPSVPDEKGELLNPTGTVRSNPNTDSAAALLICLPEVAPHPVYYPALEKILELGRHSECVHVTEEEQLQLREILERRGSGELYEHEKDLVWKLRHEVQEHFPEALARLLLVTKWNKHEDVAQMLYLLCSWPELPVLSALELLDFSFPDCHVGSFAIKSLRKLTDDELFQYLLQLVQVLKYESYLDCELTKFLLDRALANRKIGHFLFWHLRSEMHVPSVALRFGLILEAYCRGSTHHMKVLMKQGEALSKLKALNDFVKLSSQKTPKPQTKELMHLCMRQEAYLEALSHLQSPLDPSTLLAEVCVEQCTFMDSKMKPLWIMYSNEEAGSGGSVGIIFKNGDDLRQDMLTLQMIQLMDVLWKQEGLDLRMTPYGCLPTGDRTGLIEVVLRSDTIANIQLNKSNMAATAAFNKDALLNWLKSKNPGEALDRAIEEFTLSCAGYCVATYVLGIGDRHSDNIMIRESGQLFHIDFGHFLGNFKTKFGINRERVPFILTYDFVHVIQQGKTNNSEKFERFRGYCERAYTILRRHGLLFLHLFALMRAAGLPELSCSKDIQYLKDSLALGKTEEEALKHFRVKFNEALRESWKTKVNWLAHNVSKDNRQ
T1 sequence (P27986 whole entry partner): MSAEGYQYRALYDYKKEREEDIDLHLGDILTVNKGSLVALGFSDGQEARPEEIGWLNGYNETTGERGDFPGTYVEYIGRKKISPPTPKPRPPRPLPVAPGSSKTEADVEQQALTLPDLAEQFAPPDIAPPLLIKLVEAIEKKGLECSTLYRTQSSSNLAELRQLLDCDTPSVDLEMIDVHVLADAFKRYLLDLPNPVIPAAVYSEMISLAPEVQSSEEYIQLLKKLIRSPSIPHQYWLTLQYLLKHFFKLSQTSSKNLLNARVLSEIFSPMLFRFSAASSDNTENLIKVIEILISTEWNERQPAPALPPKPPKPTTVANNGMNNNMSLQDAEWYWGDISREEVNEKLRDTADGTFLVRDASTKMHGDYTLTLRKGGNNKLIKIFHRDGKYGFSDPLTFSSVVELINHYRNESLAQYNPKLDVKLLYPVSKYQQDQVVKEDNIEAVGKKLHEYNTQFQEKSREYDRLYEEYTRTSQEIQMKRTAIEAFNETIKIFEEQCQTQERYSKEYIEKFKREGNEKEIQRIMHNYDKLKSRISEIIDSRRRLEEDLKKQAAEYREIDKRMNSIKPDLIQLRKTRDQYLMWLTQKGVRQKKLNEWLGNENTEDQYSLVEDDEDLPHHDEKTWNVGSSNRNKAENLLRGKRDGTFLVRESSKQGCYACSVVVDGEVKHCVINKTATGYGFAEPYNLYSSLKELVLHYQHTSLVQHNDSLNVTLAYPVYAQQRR

As for `C[C@H](Nc1ncnc(N)c1C#N)c1cc2ccccn2c(=O)c1-c1ccccc1` (single isomer, unassigned) [Compound 4a, 4-Amino-6-((1-(4-oxo-3-phenyl-4H-quinolizin-2-yl)ethyl)amino)pyrimidine-5-carbonitrile], the IC50 lay in the range of 0.011 to 0.05 µM.

Take `C[C@H](Nc1ncnc2[nH]cnc12)c1cc2ccccn2c(=O)c1-c1cccc(F)c1` (single isomer, unassigned) [Compound 5a, 2-(1-((9H-purin-6-yl)amino)ethyl)-3-(3-fluorophenyl)-4H-quinolizin-4-one]: the IC50 was in the range of 0.051 to 0.25 µM.

On to `C[C@H](Nc1ncnc(N)c1C#N)c1cc2ccccn2c(=O)c1-c1cccc(F)c1` (single isomer, unassigned) [Compound 6a, 4-Amino-6-((1-(3-(3-fluorophenyl)-4-oxo-4H-quinolizin-2-yl)ethyl)amino)-pyrimidine-5-carbonitrile], for which the IC50 lay in the range of 0.0001 to 0.01 µM.

As for `Cc1cccc2cc([C@H](C)Nc3nc(N)nc4[nH]cnc34)c(-c3ccccc3)c(=O)n12` (single isomer, unassigned) [Compound 8a, 2-(1-((2-Amino-9H-purin-6-yl)amino)ethyl)-6-methyl-3-phenyl-4H-quinolizin-4-one], the IC50 fell in the range of 0.0001 to 0.01 µM.

In the case of `Cc1cccc2cc([C@H](C)Nc3nc(F)nc4[nH]cnc34)c(-c3ccccc3)c(=O)n12` (single isomer, unassigned) [Compound 9a, 2-(1-((2-Fluoro-9H-purin-6-yl)amino)ethyl)-6-methyl-3-phenyl-4H-quinolizin-4-one], the IC50 is 0.0001 to 0.01 µM.

On to `Cc1cccc2cc([C@H](C)Nc3ncnc(N)c3C#N)c(-c3cccc(F)c3)c(=O)n12` (single isomer, unassigned) [Compound 10a, 4-Amino-6-((1-(3-(3-fluorophenyl)-6-methyl-4-oxo-4H-quinolizin-2-yl)ethyl)amino)pyrimidine-5-carbonitrile], for which the IC50 was in the range of 0.0001 to 0.01 µM.

On to `Cc1cccc2cc([C@H](C)Nc3ncnc4[nH]cnc34)c(-c3cccc(F)c3)c(=O)n12` (single isomer, unassigned) [Compound 11a, 2-(1-((9H-purin-6-yl)amino)ethyl)-3-(3-fluorophenyl)-6-methyl-4H-quinolizin-4-one], for which the IC50 was 0.0001 to 0.01 µM.

In the case of `Cc1cccc2cc([C@H](C)Nc3nc(N)nc4[nH]cnc34)c(-c3cccc(F)c3)c(=O)n12` (single isomer, unassigned) [Compound 12a, 2-(1-((2-Amino-9H-purin-6-yl)amino)ethyl)-3-(3-fluorophenyl)-6-methyl-4H-quinolizin-4-one], the IC50 is 0.0001 to 0.01 µM.

As for `C[C@H](Nc1ncnc(N)c1C#N)c1cc2ccc(F)cn2c(=O)c1-c1ccccc1` (single isomer, unassigned) [Compound 14a], the IC50 lay within 0.011 to 0.05 µM.

On to `C[C@H](Nc1nc(N)nc2[nH]cnc12)c1cc2ccc(F)cn2c(=O)c1-c1cccc(F)c1` (single isomer, unassigned) [Compound 15a, 2-(1-((2-Amino-9H-purin-6-yl)amino)ethyl)-7-fluoro-3-(3-fluorophenyl)-4H-quinolizin-4-one], for which the IC50 lay within 0.011 to 0.05 µM.

Consider `C[C@H](Nc1ncnc(N)c1C#N)c1cc2ccc(F)cn2c(=O)c1-c1cccc(F)c1` (single isomer, unassigned) [Compound 16a, 4-Amino-6-((1-(7-fluoro-3-(3-fluorophenyl)-4-oxo-4H-quinolizin-2-yl)ethyl)amino)pyrimidine-5-carbonitrile], for which the IC50 lay within 0.0001 to 0.01 µM.

Regarding `Cc1cccc2cc([C@H](C)Nc3ncnc(N)c3C#N)c(-c3cc(F)cc(F)c3)c(=O)n12` (single isomer, unassigned) [Compound 17a, 4-Amino-6-((1-(3-(3,5-difluorophenyl)-6-methyl-4-oxo-4H-quinolizin-2-yl)ethyl)amino)pyrimidine-5-carbonitrile], the IC50 fell in the range of 0.0001 to 0.01 µM.

With `Cc1cccc2cc([C@H](C)Nc3nc(N)nc4[nH]cnc34)c(-c3cc(F)cc(F)c3)c(=O)n12` (single isomer, unassigned) [Compound 18a, 2-(1-((2-amino-9H-purin-6-yl)amino)ethyl)-3-(3,5-difluorophenyl)-6-methyl-4H-quinolizin-4-one], the IC50 fell in the range of 0.0001 to 0.01 µM.

Regarding `Cc1cccc2cc([C@H](C)Nc3ncnc(N)c3C#N)c(-c3ccc(F)c(F)c3)c(=O)n12` (single isomer, unassigned) [Compound 19a, 4-Amino-6-((1-(3-(3,4-difluorophenyl)-6-methyl-4-oxo-4H-quinolizin-2-yl)ethyl)amino)pyrimidine-5-carbonitrile], the IC50 was in the range of 0.011 to 0.05 µM.

Regarding `C[C@H](Nc1nc(N)ncc1C#N)c1cc2ccc(F)cn2c(=O)c1-c1cccc(F)c1` (single isomer, unassigned) [Compound 20a, 2-Amino-4-((1-(7-fluoro-3-(3-fluorophenyl)-4-oxo-4H-quinolizin-2-yl)ethyl)amino)pyrimidine-5-carbonitrile], the IC50 was 0.011 to 0.05 µM.

As to `Cc1nc(N)nc(N[C@@H](C)c2cc3ccc(F)cn3c(=O)c2-c2cccc(F)c2)c1C#N` (single isomer, unassigned) [Compound 21a, 2-Amino-4-((1-(7-fluoro-3-(3-fluorophenyl)-4-oxo-4H-quinolizin-2-yl)ethyl)amino)-6-methylpyrimidine-5-carbonitrile], the 50% inhibitory concentration (IC50) was in the range of 0.0001 to 0.01 µM.

As for `Cc1c(F)ccc2cc([C@H](C)Nc3ncnc(N)c3C#N)c(-c3cccc(F)c3)c(=O)n12` (single isomer, unassigned) [Compound 23a, 4-Amino-6-((1-(7-fluoro-3-(3-fluorophenyl)-6-methyl-4-oxo-4H-quinolizin-2-yl)ethyl)amino)pyrimidine-5-carbonitrile], the IC50 was in the range of 0.0001 to 0.01 µM.

Take `Cc1c(F)ccc2cc([C@H](C)Nc3ncnc4[nH]cnc34)c(-c3ccccc3)c(=O)n12` (single isomer, unassigned) [Compound 24a, 2-(1-((9H-purin-6-yl)amino)ethyl)-7-fluoro-6-methyl-3-phenyl-4H-quinolizin-4-one]: the IC50 lay in the range of 0.0001 to 0.01 µM.

In the case of `CC[C@H](Nc1ncnc(N)c1C#N)c1cc2ccc(F)cn2c(=O)c1-c1ccccc1` (single isomer, unassigned) [Compound 41a, 4-Amino-6-((1-(7-fluoro-4-oxo-3-phenyl-4H-quinolizin-2-yl)propyl)amino)pyrimidine-5-carbonitrile], the IC50 is 0.011 to 0.05 µM.

With `CC[C@H](Nc1nc(N)nc(N)c1C#N)c1cc2ccc(F)cn2c(=O)c1-c1ccccc1` (single isomer, unassigned) [Compound 42a, 2,4-diamino-6-((1-(7-fluoro-4-oxo-3-phenyl-4H-quinolizin-2-yl)propyl)amino)pyrimidine-5-carbonitrile], the IC50 lay in the range of 0.0001 to 0.01 µM.

As to `CC[C@H](Nc1ncnc(N)c1C#N)c1cc2ccc(F)cn2c(=O)c1-c1cccc(F)c1` (single isomer, unassigned) [Compound 44a, 4-Amino-6-((1-(7-fluoro-3-(3-fluorophenyl)-4-oxo-4H-quinolizin-2-yl)propyl)amino)pyrimidine-5-carbonitrile], the IC50 was in the range of 0.011 to 0.05 µM.

As to `CC[C@H](Nc1nc(N)nc(N)c1C#N)c1cc2ccc(F)cn2c(=O)c1-c1cccc(F)c1` (single isomer, unassigned) [Compound 45a, 2,4-diamino-6-((1-(7-fluoro-3-(3-fluorophenyl)-4-oxo-4H-quinolizin-2-yl)propyl)amino)pyrimidine-5-carbonitrile], the IC50 was in the range of 0.0001 to 0.01 µM.

Consider `CC[C@H](Nc1nc(N)nc2[nH]cnc12)c1cc2ccc(F)cn2c(=O)c1-c1cccc(F)c1` (single isomer, unassigned) [Compound 47b, 2-(1-((2-amino-9H-purin-6-yl)amino)propyl)-7-fluoro-3-(3-fluorophenyl)-4H-quinolizin-4-one], for which the IC50 lay in the range of 0.011 to 0.05 µM.

`C[C@@H](c1cc2ccc(F)cn2c(=O)c1-c1ccccc1)n1nc(-c2cc(F)cc(NS(C)(=O)=O)c2)c2c(N)ncnc21` (single isomer, unassigned) [Compound 58a, N-(3-(4-amino-1-(1-(7-fluoro-4-oxo-3-phenyl-4H-quinolizin-2-yl)ethyl)-1H-pyrazolo[3,4-d]pyrimidin-3-yl)-5-fluorophenyl)methanesulfonamide]: the IC50 was 0.011 to 0.05 µM.

Turning to `COc1ccc(-c2nn([C@@H](C)c3cc4ccc(F)cn4c(=O)c3-c3ccccc3)c3ncnc(N)c23)cn1` (single isomer, unassigned) [Compound 64a, 2-(1-(4-amino-3-(6-methoxypyridin-3-yl)-1H-pyrazolo[3,4-d]pyrimidin-1-yl)ethyl)-7-fluoro-3-phenyl-4H-quinolizin-4-one], the IC50 lay in the range of 0.011 to 0.05 µM.

Turning to `COc1ncc(-c2nn([C@@H](C)c3cc4ccc(F)cn4c(=O)c3-c3ccccc3)c3ncnc(N)c23)cc1NS(C)(=O)=O` (single isomer, unassigned) [Compound 67a, N-(5-(4-amino-1-(1-(7-fluoro-4-oxo-3-phenyl-4H-quinolizin-2-yl)ethyl)-1H-pyrazolo[3,4-d]pyrimidin-3-yl)-2-methoxypyridin-3-yl)methanesulfonamide], the IC50 is 0.0001 to 0.01 µM.

`C[C@H](Nc1ncnc2[nH]cc(C#N)c12)c1cc2ccc(F)cn2c(=O)c1-c1ccccc1` [Compound 28, (S)-4-((1-(7-fluoro-4-oxo-3-phenyl-4H-quinolizin-2-yl)ethyl)amino)-7H-pyrrolo[2,3-d]pyrimidine-5-carbonitrile]: the IC50 was in the range of 0.0001 to 0.01 µM.
